# Measurements: patent publication US4352885A, “Preparation of a novel NADP linked alcohol-aldehyde/ketone oxidoreductase from thermophilic anaerobic bacteria for analytical and commercial use” (Wisconsin Alumni Research Foundation, priority 1980, dated 1982)
# T1: NADP linked alcohol dehydrogenase (alcohol-aldehyde/ketone oxidoreductase) (Thermoanaerobacter brockii, UniProt P14941)
# T1 construct: of the T. brockii enzyme preparation with various alcohols and carbonyl compounds; made in house; host or cells: T. brockii itself (native host; partially purified enzyme)
# T1 sequence (P14941 1-352): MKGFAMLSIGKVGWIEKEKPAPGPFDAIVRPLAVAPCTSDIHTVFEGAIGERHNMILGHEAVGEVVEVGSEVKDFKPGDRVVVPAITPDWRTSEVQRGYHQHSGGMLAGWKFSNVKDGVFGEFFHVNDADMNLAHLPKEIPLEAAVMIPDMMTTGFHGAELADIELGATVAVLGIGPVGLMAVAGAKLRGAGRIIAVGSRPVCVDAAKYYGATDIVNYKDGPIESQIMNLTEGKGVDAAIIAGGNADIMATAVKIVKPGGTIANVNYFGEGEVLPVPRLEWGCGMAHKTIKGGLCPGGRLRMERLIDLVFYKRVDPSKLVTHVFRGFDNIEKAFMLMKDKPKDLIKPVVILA
# T2: NADP linked alcohol dehydrogenase (secondary alcohol dehydrogenase activity) (Thermoanaerobacter brockii, UniProt P14941)
# T2 construct: The NADP linked alcohol dehydrogenase derived from T. brockii can be immobilized; made in house; host or cells: T. brockii itself (native host)
# T2 sequence (P14941 1-352): T1 sequence (P14941 1-352)
# B1: NADP linked alcohol dehydrogenase (alcohol-aldehyde/ketone oxidoreductase) (Thermoanaerobacter brockii) (protein)
# chain: T1 sequence (P14941 1-352)
# notes: of the T. brockii enzyme preparation with various alcohols and carbonyl compounds; made in house; host or cells: T. brockii itself (native host; partially purified enzyme)
# B2: immobilized enzyme system: T. brockii alcohol dehydrogenase immobilized on sepharose 4B-CnBr, packed in a flow cell (protein, UniProt P14941 1-352, looked up)
# NADP-dependent isopropanol …: T1 sequence (P14941 1-352)
# modifications: immobilized on CNBr-Sepharose 4B
# Molecular target: T1, NADP linked alcohol dehydrogenase (alcohol-aldehyde/ketone oxidoreductase)
# Assay: Specific activity of partially purified NADP linked alcohol dehydrogenase with alcohols and carbonyl compounds (absorbance at 334 nm)
# Assay type: biochemical, Thermoanaerobium brockii
# Settings: Tris-Cl buffers; acetaldehyde reduction or sec-butanol oxidation
row,Molecule,Optimum pH
1,"CC=O [CH3 CHO, acetaldehyde]",7.8
2,"CCC(C)O (centres unmarked) [CH3 CH2 CH(OH)CH3, sec-butanol]",7.8-9.0

# Same assay, conditions: as coenzymes instead of NADP/NADPH
row,Molecule,Activity with the substance as coenzyme
1,"NC(=O)c1ccc[n+]([C@@H]2O[C@H](COP(=O)([O-])OP(=O)(O)OC[C@H]3O[C@@H](n4cnc5c(N)ncnc54)[C@H](O)[C@@H]3O)[C@@H](O)[C@H]2O)c1 [NAD, reference compound]",No activity
2,"NC(=O)C1=CN([C@@H]2O[C@H](COP(=O)(O)OP(=O)(O)OC[C@H]3O[C@@H](n4cnc5c(N)ncnc54)[C@H](O)[C@@H]3O)[C@@H](O)[C@H]2O)C=CC1 [NADH, reference compound]",No activity

# Same assay, conditions: coenzymes
row,Molecule,Apparent Michaelis constant KM (coenzymes)
1,"NC(=O)C1=CN([C@@H]2O[C@H](COP(=O)(O)OP(=O)(O)OC[C@H]3O[C@@H](n4cnc5c(N)ncnc54)[C@H](OP(=O)(O)O)[C@@H]3O)[C@@H](O)[C@H]2O)C=CC1 [NADPH, reference compound]",in the micromolar range
2,"NC(=O)c1ccc[n+]([C@@H]2O[C@H](COP(=O)([O-])OP(=O)(O)OC[C@H]3O[C@@H](n4cnc5c(N)ncnc54)[C@H](OP(=O)(O)O)[C@@H]3O)[C@@H](O)[C@H]2O)c1 [NADP, Nicotinamide adenine dinucleotide phosphate]",in the micromolar range

# Same assay, conditions: saturating substrate (0.2-0.5 M alcohol or ketone, 10 mM acetaldehyde); 0.5 mM NADP or 0.2 mM NADPH; 0.1 M Tris-Cl pH 7.8
row,Molecule,Activity V/mg. at 60° C.
1,"CC=O [CH3 CHO, acetaldehyde]",7.8 μ Mole/Min./Mg Protein
2,CCCCO [CH3 CH2 CH2 CH2 OH],4.1 μ Mole/Min./Mg Protein
3,"CCC(C)=O [CH3 COCH2 CH3, butanone]",7.6 μ Mole/Min./Mg Protein
4,CO [CH3 OH],0 μ Mole/Min./Mg Protein
5,CCCO [CH3 CH2 CH2 OH],3.6 μ Mole/Min./Mg Protein
6,CC(O)CC(C)O (centres unmarked) [CH3 CH(OH)CH2 CH(OH)CH3],2.6 μ Mole/Min./Mg Protein
7,C=CC(O)CC (centres unmarked) [CH2CHCH(OH)CH2 CH3],65.0 μ Mole/Min./Mg Protein
8,"CCC(C)O (centres unmarked) [CH3 CH2 CH(OH)CH3, sec-butanol]",78.0 μ Mole/Min./Mg Protein
9,CC1CCC(=O)CC1 [4-Methyl Cyclohexanone],0.5 μ Mole/Min./Mg Protein
10,CC(=O)C1CC1 [Methyl cyclopropyl ketone],0.5 μ Mole/Min./Mg Protein
11,CCC(C)CO (centres unmarked) [CH3 CH2 CH2 (CH3)CH2 OH],3.0 μ Mole/Min./Mg Protein
12,O=C1CCCC1 [Cyclopentanone],6.0 μ Mole/Min./Mg Protein
13,O=C1CC2CCC1C2 (centres unmarked),4.9 μ Mole/Min./Mg Protein
14,CCCCCO [CH3 CH2 CH2 CH2 CH2 OH],0.9 μ Mole/Min./Mg Protein
15,CCO [CH3 CH2 OH],3.2 μ Mole/Min./Mg Protein
16,CC1CCCC(=O)C1 (centres unmarked) [3-Methyl Cyclohexanone],2.0 μ Mole/Min./Mg Protein
17,O=C1CCCCC1 [Cyclohexanone],6.2 μ Mole/Min./Mg Protein
18,CC1CCCCC1=O (centres unmarked) [2-Methyl Cyclohexanone],6.0 μ Mole/Min./Mg Protein
19,"CC(C)O [CH3 CH(OH)CH3, isopropanol]",59.0 μ Mole/Min./Mg Protein
20,O=C1CCCCCCC1 [Cyclooctanone],0 μ Mole/Min./Mg Protein
21,CC(C)CO [CH3 CH2 (CH3)CH2 OH],3.1 μ Mole/Min./Mg Protein
22,OC1CCCCC1 [Cyclohexanol],12.2 μ Mole/Min./Mg Protein
23,O=C1CCCCCC1 [Cycloheptanone],3.0 μ Mole/Min./Mg Protein
24,"CC(C)=O [CH3 COCH3, acetone]",10.4 μ Mole/Min./Mg Protein
25,2-Cyclohexanone,4.9 μ Mole/Min./Mg Protein

# Same assay, conditions: tested as substrates
row,Molecule,Reaction as substrate
1,OCC(O)CO [glycerol],did not react
2,C[C@H](O)C(=O)O [L-lactic acid],did not react

# Substrate: CC=O
# Assay: as above
# Assay type: biochemical, Thermoanaerobium brockii
# Settings: other: substrate concentration giving half-maximal velocity; pH 7.8; 40.0 °C
row,Molecule,Km
1,B1,150 µM

# System: not listed separately
# Assay: Thermostability and storage stability of the alcohol dehydrogenase
# Assay type: physicochemical, Thermoanaerobium brockii
# Settings: millimolar concentrations
# Experimental: The immobilized alcohol dehydrogenase of example 2 was packed in a small flow cell which allowed amperometric measurement of NAPDH concentration, using a glossy carbon and Ag/Cl electrode with 0.8 volt potential difference. A soltuion containing 0.05 mM NADP and varying concentrations of sec. butanol 10-100 micro molar were passed through the cell and gave a signal which depended on the concentration of alcohol. Alternatively, solutions that contained 10 mM NADPH and varying concentrations of acetone produced signals which decreased linearly with increasing concentrations of acetone at 0-200 mM. Potassium phosphate buffer at 500 mM and pH 7.5 was used in these experiments. The immobilized enzyme system for measurement of ketones and alcohols was stable for 2 weeks at room temperature.
row,Molecule,Effect on thermostability of the enzyme
1,"O=C(O)CN(CCN(CC(=O)O)CC(=O)O)CC(=O)O [EDTA, ethylenediamine-tetraacetic acid, reference compound]",did not decrease thermostability

# Same assay, conditions: room temperature; immobilized on sepharose in flow cell
row,Molecule,Time stable
1,B2,2 weeks

# Molecular target: T2, NADP linked alcohol dehydrogenase (secondary alcohol dehydrogenase activity)
# Assay: Effects of metal ions, complexing agents and thiol reagents on the enzyme
# Assay type: biochemical, Thermoanaerobium brockii
# Settings: not given
# Experimental: Metal ions, complexing agents and thiol reagents had the following effects.
# Each of the above studies were performed at 40° C.
row,Molecule,Inhibition of activity by complexing agents
1,Oc1cccc2cccnc12 [8-hydroxyquinoline],did not significantly inhibit activity
2,"O=C(O)CN(CCN(CC(=O)O)CC(=O)O)CC(=O)O [EDTA, ethylenediamine-tetraacetic acid, reference compound]",did not significantly inhibit activity

# Same assay, conditions: 0.05 mM; 40° C.
row,Molecule,Reaction of thiol reagent with the enzyme (inhibition)
1,"O=C(O)c1cc[c]([Hg][Cl])cc1 [PCMB, parachloromercuricbenzoate]",reacted instantly

# Same assay, conditions: 1 mM; 40° C.
row,Molecule,Activation or inhibition by metal salts
1,[Cl][Cu][Cl] [CuCl2],no significant activation or inhibition
2,[Ca+2].[Cl-].[Cl-] [CaCl2],no significant activation or inhibition
3,[Cl-].[Cl-].[Mg+2] [MgCl2],no significant activation or inhibition
4,[Cl-].[Cl-].[Zn+2] [ZnCl2],no significant activation or inhibition

# Same assay, conditions: 1 mM; slow (15 min.); 40° C.
row,Molecule,Inactivation of the enzyme
1,"CCN1C(=O)C=CC1=O [NEM, N-ethylmaleimide]",inactivated the enzyme

# Same assay, conditions: 2 mM; 40° C.; read-out: Inhibitory effect on secondary alcohol dehydrogenase activity
row,Molecule,inhibition at 2000 µM
1,c1cnc2c(c1)ccc1cccnc12 [orthophenanthroline],15 to 20%

# Same assay, conditions: 5 mM DTT, within a few minutes; 1 mM ZnSO4; 40° C.
row,Molecule,Reactivation of PCMB inhibited enzyme
1,O=S(=O)([O-])[O-].[Zn+2] [ZnSO4],necessary for complete reactivation
2,"O[C@H](CS)[C@H](O)CS (racemic) [DTT, dithiothreitol]",Complete reversal of the PCMB inhibition

# System: T. brockii cultures
# Assay: Reduction of ketones by T. brockii cultures
# Assay type: cell-based, Thermoanaerobium brockii
# Settings: 0.5% ketone in TYEG medium; 60° C.; 15 hours incubation
# Experimental: T. brockii was incubated at 60° C. in anaerobic culture tubes containing the previously described TYEG medium supplemented with 0.5% acetone or butanone. More than 50% of each ketone was converted to the corresponding alcohol after 15 hours incubation. Growth of the organism ceased once the pH fell below 5.0. The reaction is indicated in FIG. 1 when acetone is substituted for glucose to produce the corresponding secondary isopropanol.
row,Molecule,Ketone converted to the corresponding alcohol
1,"CCC(C)=O [CH3 COCH2 CH3, butanone]",More than 50%
2,"CC(C)=O [CH3 COCH3, acetone]",More than 50%

# Substrate: CCC(C)O
# Assay: purified protein, by the assay type
# Settings: other: substrate concentration giving half-maximal velocity; pH 7.8; 40.0 °C
row,Molecule,Km
1,B1,500 µM
